In series [1] the test system is IL-1α. Nature of the series: Western blot analysis of secreted protein (IL-1α). The format is cell-based, rat. As to conditions: LPS, FIG. 1b. For orientation: A western blot detects proteins with antibodies after separation by electrophoresis.
Series [2] has as its system alveolar macrophage. Nature of the series: Alveolar macrophage viability following 24 hour exposure. In kind it is cell-based. As to conditions: concentrations ≤10^-5 M; normal rat macrophages. On the procedure:
Dose response studies were performed to determine the molar concentration at which pentamidine reduced viability in normal rat macrophages. […] This blockage was shown using an enzyme linked immunosorbant assay with specific antibody to IL-1β.
Alveolar macrophage viability was assessed by incubating the cells in RPMI 1640 media with 10% fetal calf serum in the presence of pentamidine at the indicated concentrations. Twenty-four hours later the cells were analyzed for viability using ethidium bromide staining. A minimum of 10,000 cells were analyzed by flow cytometry on a FACSCAN analyzer.
These observations have been confirmed using microscopic analysis via trypan blue dye exclusion.

Series [3] has as its system Ia antigen. Briefly: Ia antigen expression on alveolar macrophages (flow cytometry). In kind it is cell-based, rat. The method, then: ^a Ia antigen expression - Alveolar macrophages were diluted to 1×10^6 cells/ml in RPMI (supplemented as above). Three mls. (3×10^6 cells) were added to sterile teflon vials and treated with pentamidine or dexamethasone for 4 hours at 37° C., 5% CO2, followed by the addition of rat γ IFN at 100 U/ml. Cells were incubated for 18 hours, pelleted, counted and adjusted to 1×10^7 cells/ml in ice cold standard buffer (HBSS, 0.1% Na azide, 1% BSA).
Aliquots of cells (50 μl in quadruplicate) from the various treatment groups were plated to a 96 well round bottom plate (Linbro) and incubated for 45 minutes on ice with 50 μl aliquots of one of the following: monoclonal anti-rat OXS (Sera-lab), monoclonal anti-mouse OX6 (Sera-lab), both at 0.5 μg/5×10^5 cells, or HBSS (control). Cells were washed 3× with standard buffer and incubated for 45 minutes on ice, in the dark, with 50 μl of phycoerythrin-labeled goat anti-mouse IGGI (Fisher Biotech) at 1 μg/5×10^5 cells. Cells were washed 3× with standard buffer, resuspended in 0.4 ml of standard buffer and analyzed via flow cytometry.

For series [4], the system named is IL-1α mRNA. Briefly: Northern blot analysis of IL-1α mRNA expression. The format is cell-based, rat. As to conditions: 10 μM pentamidine, LPS, 3 h, FIG. 2. On the procedure:
Specific transcription of IL-1α mRNA synthesis was assessed by incubating cells with and without 10 μM pentamidine or 1 μM of the corticosteroid, dexamethasone in the presence or absence of lipopolysaccharide (LPS). At the end of a 3 hour incubation period, the cells were lysed and the total cellular RNA was collected, blotted onto a nitrocellulose filter and probed with ^32 P-labeled IL-1α cDNA. […] In contrast, mRNA for IL-1α was not seen in dexamethasone treated cells.
For determination of IL-1 mRNA levels, cells (4×10^6) were cultured with or without pentamidine (10 μM) or dexamethasone (1 μM) in media with 10% FCS in the presence or absence of LPS (1 μg/ml) for 3 hours. Total cellular RNA was isolated by quanidinium-thiocyanate phenolchloroform extraction (P. Chomczynski et al., Anal. Bioch. 162, 156 (1987)). RNA (10 μg) was electrophoresed in 1.2% agarose gels as previously described (H. Leharch et al., Biochemistry 4743 (1977)). […] Hybridizing species were detected by autoradiography at -70° C., using Kodak XAR film with an intensifying screen. The total RNA levels per lane on the gel was assessed by monitoring 28S and 18S, and expression of α-tubulin mRNA. Accumulation of α-tubulin mRNA was determined by probing the same blot with ^32 P labeled 30 mer oligonucleotide (Du Pont).

Series [5] has as its system IL-1. Briefly: IL-1 release from alveolar macrophages (thymocyte co-stimulation bioassay). The conditions noted are these: 24 h after LPS (5 ng/ml), FIG. 1a. The format is cell-based, rat. On the procedure:
Pulmonary alveolar macrophages were collected by lavaging the lungs as previously described (D. B. Warheit et al., Am. Rev. Resp. Dis. 134, 128 (1986)). Once washed and resuspended, the macrophages were allowed to adhere to plastic plates in serum free RPMI 1640 containing 25 mM Hepes, 2 mM L-glutamine, 50 μg/ml gentamicin and streptomycin (media). Following adherence for 1 hour at 37° C. in 5% CO2, the plates were washed once with warm media to remove nonadherent cells, cells were resuspended in media with 10% FCS and treated with or without pentamidine at the indicated concentration and LPS (5 ng/ml) for 24 hours). IL-1 activity was assayed using a thymocyte co-stimulation assay (S. B. Mizel in Methods in Macrophage Biology, Editors, Herscowitz and Holden (1981)). Single cell thymocyte suspension from B6C3F1 mice (female, 5-9 weeks old) at a concentration of 2.0×10^7 /ml in media containing 10% FCS, and 2.5×10^-5 M 2-β mercaptoethanol were added in 50 μl aliquots to each well of flat bottom microtiter plates along with 50 μl of PHA at 2.5 μg/ml. Serial dilution of supernatants or cells were made in media with 10% FCS and added in 100 μl aliquots. IL-1 activity was measured by quantifying the uptake of 3Hthymidine during the last 6 hours of a 72 hour culture at 37° C. and 5% CO2. Cells were harvested onto glass fiber filters and filter associated radioactivity counted in a scintillation counter.
In vitro studies were performed by taking alveolar macrophages from normal healthy rat lungs and culturing them in the presence of an imidazoline with the inducer lipopolysaccharide for 24 hours. The standard bioassay for IL-1 was performed (see above).

The subject of series [6] is Pulmonary alveolar macrophages. Nature of the series: Phagocytosis by pulmonary alveolar macrophages (Fluoresbrite beads, flow cytometry). In kind it is cell-based, rat. On the procedure:
One ml aliquots were added to sterile teflon vials (Nalgene) along with pentamidine or dexamethasone (Sigma) as indicated, and incubated for 4 hours at 37° C., 5% CO2. Fluoresbrite carboxylate beads, 1.73 μm (Polysciences) were used to achieve a 100:1 bead to cell ratio and the suspension was incubated for 45 minutes at 37° C., 5% CO2 with gentle agitation. Cell suspensions were then layered over 3 mls. of RPMI/FCS+0.3% BSA, and cells pelleted at 150 xg for 10 minutes. Supernates were discarded and cells resuspended in 1 ml of RPMI/FCS for analysis via flow cytometry. The data presented above is the mean of the percentage of cells taking up one or more beads of triplicate cultures.
(In flow cytometry, cells or beads pass a laser one at a time.)

Entries after “also recorded” stand apart in the source; their conditions may differ.

`N=C(N)c1ccc(OCCCCCOc2ccc(C(=N)N)cc2)cc1` [Pentamidine, 1,5-bis(4-amidinophenoxy)pentane]: the “Secreted IL-1 by Western blot” value in series [1] is recorded as “nearly complete block in the release of the intracellular IL-1; also recorded: lack of a lipopolysaccharide inducible IL-1 band”. In addition, the “Loss in cell viability” value in series [2] is “No significant loss in cell viability”. Besides, the “Ia Antigen Expression (MFI)” value in series [3] (Pentamidine 10^-5 M (control 459)) is recorded as 464 MFI. Besides, in series [3] (result in words), the “Mean concentration of Ia molecules on Ia positive cells” value is “nor did it influence the mean concentration of Ia molecules on Ia positive cells”. In series [4], the “IL-1α mRNA expression” value is listed as “lack of effect on mRNA expression; also recorded: equal amounts of L-1α mRNA”. Besides, the IL-1 release entry in series [5] is given as “decreased in a concentration dependant manner; also recorded: decreased in a concentration dependent manner”. Also, the “Phagocytic Index” value in series [6] (Pentamidine 10^-5 M (control 32)) came to 32%. Further, the “Phagocytic capacity of alveolar macrophages” value in series [6] (result in words) is reported as “did not modulate the phagocytic capacity of alveolar macrophages”.

Values taken from patent US5162361A, “Method of treating diseases associated with elevated levels of interleukin 1” (priority 1990, dated 1992).
